From paper PMC11912475 (Journal of Medicinal Chemistry, 2025)

How the values were obtained:
[1] = biological target: GluN1-GluN2A NMDAR subtype (Homo sapiens, UniProt Q05586+Q12879); assay: FLIPR/Ca2+ assay, NMDAR GluN1-GluN2A subtype in CHO cells; format: cell-based; settings: CHO cells, 10 μM L-glutamate and 10 μM glycine, n.d. = 50% of inhibition could not be reached at the highest concentration used
Description: (§1) These compounds were assessed for their effects on specific heterodimeric NMDAR subtypes stably overexpressed in Chinese Hamster Ovary (CHO) cells. The subtypes tested included GluN1-GluN2A, GluN1-GluN2B, GluN1-GluN2C, and GluN1-GluN2D. CHO cells expressing each of the four NMDAR subtypes were incubated with 10 μM L-glutamate, a concentration known to elicit maximal Ca^2+ influx, serving as the stimulus. Intracellular Ca^2+ levels were subsequently measured to determine the extent of NMDAR activation.
(§2) Assay buffer composition was 145 mM NaCl, 5 mM KCl, 2 mM CaCl2, 1 g/Liter D-(+)-glucose, and 20 mM HEPES (pH 7.3 adjusted with NaOH). Cells were plated at a density of 15.000/well in 384 black/clear bottom plates. […] Cells were kept at 30 °C in 5% CO2 incubator for 24 h. Cells were preloaded for 1 h with 2 μM Fluo-4 Ca^2+-sensitive probe, simultaneously with 2.5 mM probenecid, an inhibitor of nonspecific anion transport, and 500 μM ketamine to avoid cytotoxicity. […] Intracellular Ca^2+ level was monitored by FLIPR (excitation wavelength at 470–495 nm, emission wavelength at 515–575 nm) for 10 s before and 5 min after the addition of test items. All test items, including L-glutamate and glycine, were added simultaneously. […] FLIPR data were normalized as 100%, in the presence of 10 μM L-glutamate and 10 μM glycine, while as 0%, in the presence of assay buffer. […] Then, data were normalized by Excel 2013 (Microsoft Office) software, using wells added with 10 μM L-glutamate plus 10 μM glycine (column 23) as high control, and wells added with assay buffer only (column 24) as low control. To assess plate quality, Z′ calculations were performed in Excel. Z′ was calculated according to following equation: Z′ = 1–3(σh + σl)/|μh – μL| where μ and σ are the means and the standard deviations of the means of high (h) and low (l) controls, respectively. Compound concentration–response curves were plotted by Prism 8 GraphPad software, in the different experimental conditions (see Supporting Information). Data were analyzed using least-squares regression fitting, to fit data to a standard four parameters logistic equation using GraphPad Prism10. This regression fitting allowed the calculation of pIC50 and the corresponding SEM.

[2] = biological target: T1, GluN1-GluN2B NMDAR subtype (Homo sapiens, UniProt Q05586+Q13224); assay: FLIPR/Ca2+ assay, NMDAR GluN1-GluN2B subtype in CHO cells; format: cell-based; settings: CHO cells, 10 μM L-glutamate and 10 μM glycine, n.d. = 50% of inhibition could not be reached at the highest concentration used
T1 construct: host or cells: NR1-2B-CHO cells, constitutive expression
T1 sequence (Q13224 27-1484, other chains not shown): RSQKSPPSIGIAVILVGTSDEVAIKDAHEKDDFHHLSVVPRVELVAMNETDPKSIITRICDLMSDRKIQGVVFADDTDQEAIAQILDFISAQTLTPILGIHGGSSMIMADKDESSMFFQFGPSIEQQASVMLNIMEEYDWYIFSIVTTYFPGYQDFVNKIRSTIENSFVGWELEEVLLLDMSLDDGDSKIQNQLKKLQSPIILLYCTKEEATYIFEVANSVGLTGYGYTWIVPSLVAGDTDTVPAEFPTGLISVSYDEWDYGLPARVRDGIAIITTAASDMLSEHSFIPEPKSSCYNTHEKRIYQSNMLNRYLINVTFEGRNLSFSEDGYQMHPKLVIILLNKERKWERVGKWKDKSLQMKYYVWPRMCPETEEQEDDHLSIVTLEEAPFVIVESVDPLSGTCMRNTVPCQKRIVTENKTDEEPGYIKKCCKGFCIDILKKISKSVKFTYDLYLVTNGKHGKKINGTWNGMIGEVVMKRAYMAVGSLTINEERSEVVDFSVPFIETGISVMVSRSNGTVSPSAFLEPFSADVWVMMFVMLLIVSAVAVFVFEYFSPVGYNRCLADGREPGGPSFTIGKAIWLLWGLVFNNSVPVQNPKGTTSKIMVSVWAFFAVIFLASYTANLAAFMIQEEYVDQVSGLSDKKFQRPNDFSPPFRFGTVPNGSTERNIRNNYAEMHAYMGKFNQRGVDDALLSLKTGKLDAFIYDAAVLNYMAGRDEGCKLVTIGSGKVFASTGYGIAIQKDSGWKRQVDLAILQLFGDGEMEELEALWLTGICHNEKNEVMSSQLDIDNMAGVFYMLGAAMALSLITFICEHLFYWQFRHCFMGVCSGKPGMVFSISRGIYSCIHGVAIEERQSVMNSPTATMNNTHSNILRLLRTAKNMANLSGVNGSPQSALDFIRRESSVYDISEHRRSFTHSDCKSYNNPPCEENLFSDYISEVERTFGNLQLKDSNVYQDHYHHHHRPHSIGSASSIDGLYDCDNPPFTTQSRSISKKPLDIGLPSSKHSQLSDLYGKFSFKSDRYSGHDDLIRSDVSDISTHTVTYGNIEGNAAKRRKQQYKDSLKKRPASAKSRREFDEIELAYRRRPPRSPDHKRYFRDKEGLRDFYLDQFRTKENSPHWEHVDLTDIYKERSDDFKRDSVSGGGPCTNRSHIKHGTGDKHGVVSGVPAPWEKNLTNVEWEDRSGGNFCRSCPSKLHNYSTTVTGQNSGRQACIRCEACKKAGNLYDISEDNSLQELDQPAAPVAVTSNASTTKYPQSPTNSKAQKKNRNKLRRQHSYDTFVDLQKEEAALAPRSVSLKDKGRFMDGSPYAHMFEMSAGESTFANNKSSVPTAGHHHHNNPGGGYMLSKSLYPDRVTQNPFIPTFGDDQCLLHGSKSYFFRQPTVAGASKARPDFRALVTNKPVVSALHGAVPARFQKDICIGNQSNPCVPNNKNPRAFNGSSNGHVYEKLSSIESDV
Description: as §1, §2

[3] = biological target: GluN1-GluN2C NMDAR subtype (Homo sapiens, UniProt Q05586+Q14957); assay: FLIPR/Ca2+ assay, NMDAR GluN1-GluN2C subtype in CHO cells; format: cell-based; settings: CHO cells, 10 μM L-glutamate and 10 μM glycine, n.d. = 50% of inhibition could not be reached at the highest concentration used
Description: as §1, §2

[4] = biological target: GluN1-GluN2D NMDAR subtype (Homo sapiens, UniProt O15399+Q05586); assay: FLIPR/Ca2+ assay, NMDAR GluN1-GluN2D subtype in CHO cells; format: cell-based; settings: CHO cells, 10 μM L-glutamate and 10 μM glycine, n.d. = 50% of inhibition could not be reached at the highest concentration used
GluN1-GluN2D NMDAR subtype, sequence (O15399 28-1336, other chains not shown): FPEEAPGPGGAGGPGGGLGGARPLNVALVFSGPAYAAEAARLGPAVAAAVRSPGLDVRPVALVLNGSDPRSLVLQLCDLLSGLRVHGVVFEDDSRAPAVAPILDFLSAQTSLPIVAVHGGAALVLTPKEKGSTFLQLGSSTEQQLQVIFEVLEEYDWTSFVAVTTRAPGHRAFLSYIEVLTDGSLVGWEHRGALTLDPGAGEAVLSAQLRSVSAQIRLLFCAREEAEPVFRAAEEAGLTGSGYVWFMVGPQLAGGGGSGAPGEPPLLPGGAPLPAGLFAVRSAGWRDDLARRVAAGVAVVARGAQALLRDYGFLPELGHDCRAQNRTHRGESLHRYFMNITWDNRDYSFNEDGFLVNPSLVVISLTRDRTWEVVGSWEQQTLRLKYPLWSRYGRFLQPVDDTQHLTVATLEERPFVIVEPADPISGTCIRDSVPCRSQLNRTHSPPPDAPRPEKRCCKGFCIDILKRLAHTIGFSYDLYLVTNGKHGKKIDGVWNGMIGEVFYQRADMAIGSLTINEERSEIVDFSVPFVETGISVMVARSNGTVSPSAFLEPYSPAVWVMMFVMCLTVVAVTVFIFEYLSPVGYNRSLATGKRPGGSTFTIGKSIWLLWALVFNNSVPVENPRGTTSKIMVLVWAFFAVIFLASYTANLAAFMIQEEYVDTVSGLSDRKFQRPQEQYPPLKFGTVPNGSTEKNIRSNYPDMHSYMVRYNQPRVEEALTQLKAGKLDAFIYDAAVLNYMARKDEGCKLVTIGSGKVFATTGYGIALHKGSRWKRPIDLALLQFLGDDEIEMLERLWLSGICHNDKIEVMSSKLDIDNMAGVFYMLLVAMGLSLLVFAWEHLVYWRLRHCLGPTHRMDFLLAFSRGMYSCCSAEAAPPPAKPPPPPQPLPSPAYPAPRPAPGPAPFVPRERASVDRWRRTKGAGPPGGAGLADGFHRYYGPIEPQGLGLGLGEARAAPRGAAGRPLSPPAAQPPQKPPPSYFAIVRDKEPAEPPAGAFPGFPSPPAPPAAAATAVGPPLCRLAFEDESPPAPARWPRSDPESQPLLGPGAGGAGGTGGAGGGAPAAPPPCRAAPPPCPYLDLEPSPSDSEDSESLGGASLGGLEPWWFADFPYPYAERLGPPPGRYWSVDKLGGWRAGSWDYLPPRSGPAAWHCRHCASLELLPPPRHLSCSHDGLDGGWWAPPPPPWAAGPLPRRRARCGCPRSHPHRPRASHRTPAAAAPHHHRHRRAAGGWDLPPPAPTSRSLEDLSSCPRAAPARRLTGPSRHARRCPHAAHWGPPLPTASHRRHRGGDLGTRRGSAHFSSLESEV
Description: as §1, §2

[5] = system: Glutamate, NMDA, Phencyclidine binding site; assay: Radioligand displacement binding assay, [3H]TCP, NMDA; set-up: species or system Wistar rat
Histamine H1 = biological target: T2, Histamine H1 (Homo sapiens, UniProt P35367); assay: Radioligand displacement binding assay, [3H]pyrilamine, H1
T2 construct: host or cells: CHO-K1

Muscarinic M5 = biological target: T3, Muscarinic M5 (Homo sapiens, UniProt P08912); assay: Radioligand displacement binding assay, [3H]N-methylscopolamine, M5
T3 construct: host or cells: CHO-K1
T3 sequence (P08912 1-532): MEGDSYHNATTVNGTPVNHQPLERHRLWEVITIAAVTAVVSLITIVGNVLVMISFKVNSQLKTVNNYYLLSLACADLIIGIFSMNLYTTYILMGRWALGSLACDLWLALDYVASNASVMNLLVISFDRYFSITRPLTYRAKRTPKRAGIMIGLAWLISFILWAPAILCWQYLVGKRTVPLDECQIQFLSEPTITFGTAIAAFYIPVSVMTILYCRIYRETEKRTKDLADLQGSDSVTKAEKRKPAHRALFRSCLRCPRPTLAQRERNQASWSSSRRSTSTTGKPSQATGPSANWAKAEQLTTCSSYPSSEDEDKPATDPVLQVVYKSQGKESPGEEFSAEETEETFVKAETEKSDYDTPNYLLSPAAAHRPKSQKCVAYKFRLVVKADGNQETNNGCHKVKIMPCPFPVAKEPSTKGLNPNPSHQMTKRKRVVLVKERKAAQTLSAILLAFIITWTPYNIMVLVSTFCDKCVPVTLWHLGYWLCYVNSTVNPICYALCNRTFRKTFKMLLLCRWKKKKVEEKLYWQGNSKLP

μ opioid receptor (MOP) = biological target: T4, μ opioid receptor (MOP) (Homo sapiens, UniProt P35372); assay: biochemical; format: binding; settings: read-out: % inhibition of binding, MOP
T4 construct: host or cells: CHO-K1

Serotonin 5-HT1A = biological target: T5, Serotonin 5-HT1A (Homo sapiens, UniProt P08908); assay: Radioligand displacement binding assay, [3H]8-OH-DPAT, 5-HT1A
T5 construct: host or cells: CHO-K1
T5 sequence (P08908 1-422): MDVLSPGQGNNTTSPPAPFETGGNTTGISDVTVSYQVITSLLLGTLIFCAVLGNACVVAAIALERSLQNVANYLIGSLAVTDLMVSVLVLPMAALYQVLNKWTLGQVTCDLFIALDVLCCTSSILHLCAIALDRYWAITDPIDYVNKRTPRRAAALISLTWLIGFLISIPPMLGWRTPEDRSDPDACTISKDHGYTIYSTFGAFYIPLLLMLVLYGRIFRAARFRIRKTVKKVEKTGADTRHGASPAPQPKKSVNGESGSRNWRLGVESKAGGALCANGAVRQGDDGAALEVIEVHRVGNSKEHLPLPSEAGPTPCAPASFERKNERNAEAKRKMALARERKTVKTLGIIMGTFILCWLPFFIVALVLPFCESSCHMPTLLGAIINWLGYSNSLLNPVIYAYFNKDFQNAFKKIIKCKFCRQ

Serotonin 5-HT2A = biological target: T6, Serotonin 5-HT2A (Homo sapiens, UniProt P28223); assay: Radioligand displacement binding assay, [3H]ketanserin, 5-HT2A
T6 construct: host or cells: CHO-K1
T6 sequence (P28223 whole entry): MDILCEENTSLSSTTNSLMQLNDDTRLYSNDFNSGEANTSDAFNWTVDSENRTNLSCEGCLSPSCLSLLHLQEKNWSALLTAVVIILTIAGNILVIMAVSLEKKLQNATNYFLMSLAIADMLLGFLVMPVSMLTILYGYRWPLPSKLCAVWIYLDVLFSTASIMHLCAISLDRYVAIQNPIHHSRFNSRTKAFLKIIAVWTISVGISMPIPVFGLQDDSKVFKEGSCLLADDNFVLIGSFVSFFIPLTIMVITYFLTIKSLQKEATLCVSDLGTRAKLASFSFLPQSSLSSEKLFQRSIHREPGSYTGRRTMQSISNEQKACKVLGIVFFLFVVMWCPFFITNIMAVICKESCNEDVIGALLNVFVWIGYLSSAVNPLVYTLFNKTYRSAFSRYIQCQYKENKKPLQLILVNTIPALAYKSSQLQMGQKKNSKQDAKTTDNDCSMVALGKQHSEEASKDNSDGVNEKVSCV

Serotonin 5-HT2C = biological target: T7, Serotonin 5-HT2C (Homo sapiens, UniProt P28335); assay: Radioligand displacement binding assay, [3H]mesulergine, 5-HT2C
T7 construct: host or cells: CHO-K1
T7 sequence (P28335 33-458): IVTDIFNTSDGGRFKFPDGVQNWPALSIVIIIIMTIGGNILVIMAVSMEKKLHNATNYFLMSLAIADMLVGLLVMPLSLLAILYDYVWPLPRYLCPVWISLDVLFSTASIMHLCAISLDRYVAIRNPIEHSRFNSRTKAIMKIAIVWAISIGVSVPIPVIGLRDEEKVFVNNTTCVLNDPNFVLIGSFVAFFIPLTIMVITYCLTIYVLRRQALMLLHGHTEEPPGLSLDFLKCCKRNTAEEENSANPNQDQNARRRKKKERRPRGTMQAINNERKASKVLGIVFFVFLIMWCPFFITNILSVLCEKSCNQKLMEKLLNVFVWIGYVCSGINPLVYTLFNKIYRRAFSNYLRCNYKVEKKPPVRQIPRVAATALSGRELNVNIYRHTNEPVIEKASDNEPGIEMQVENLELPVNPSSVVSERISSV

Serotonin 5-HT5A = biological target: T8, Serotonin 5-HT5A (Homo sapiens, UniProt P47898); assay: Radioligand displacement binding assay, [3H]LSD, 5-HT5A
T8 construct: host or cells: CHO-K1
T8 sequence (P47898 whole entry): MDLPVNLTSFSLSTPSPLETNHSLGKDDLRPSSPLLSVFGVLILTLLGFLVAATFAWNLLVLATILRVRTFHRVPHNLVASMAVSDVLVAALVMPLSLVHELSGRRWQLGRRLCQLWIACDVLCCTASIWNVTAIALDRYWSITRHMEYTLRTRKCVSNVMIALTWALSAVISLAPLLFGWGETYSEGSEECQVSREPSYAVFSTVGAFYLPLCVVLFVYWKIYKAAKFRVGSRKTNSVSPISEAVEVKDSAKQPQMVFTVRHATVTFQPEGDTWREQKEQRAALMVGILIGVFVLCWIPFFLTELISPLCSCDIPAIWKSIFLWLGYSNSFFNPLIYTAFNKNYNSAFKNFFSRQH

Serotonin 5-HT7 = biological target: T9, Serotonin 5-HT7 (Homo sapiens, UniProt P34969); assay: Radioligand displacement binding assay, [3H]LSD, 5-HT7
T9 construct: host or cells: CHO-K1
T9 sequence (P34969 whole entry): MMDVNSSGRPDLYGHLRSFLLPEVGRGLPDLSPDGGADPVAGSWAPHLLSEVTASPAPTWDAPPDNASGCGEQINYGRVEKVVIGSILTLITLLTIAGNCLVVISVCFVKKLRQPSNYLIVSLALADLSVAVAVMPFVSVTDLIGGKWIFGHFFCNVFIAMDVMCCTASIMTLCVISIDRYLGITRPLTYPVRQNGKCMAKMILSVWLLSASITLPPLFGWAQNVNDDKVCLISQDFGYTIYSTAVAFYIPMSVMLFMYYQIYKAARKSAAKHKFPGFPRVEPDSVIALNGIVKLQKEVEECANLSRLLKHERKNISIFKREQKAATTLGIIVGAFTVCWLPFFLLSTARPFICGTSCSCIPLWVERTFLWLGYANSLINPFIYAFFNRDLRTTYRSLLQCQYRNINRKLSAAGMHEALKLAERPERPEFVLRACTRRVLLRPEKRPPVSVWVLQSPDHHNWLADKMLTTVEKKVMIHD

Sigma σ1 = biological target: T10, Sigma σ1 (Homo sapiens, UniProt Q99720); assay: Radioligand displacement binding assay, [3H]pentazocine, sigma σ1
T10 construct: Sigma σ1; Source: Human Jurkat cells; host or cells: Jurkat
T10 sequence (Q99720 whole entry): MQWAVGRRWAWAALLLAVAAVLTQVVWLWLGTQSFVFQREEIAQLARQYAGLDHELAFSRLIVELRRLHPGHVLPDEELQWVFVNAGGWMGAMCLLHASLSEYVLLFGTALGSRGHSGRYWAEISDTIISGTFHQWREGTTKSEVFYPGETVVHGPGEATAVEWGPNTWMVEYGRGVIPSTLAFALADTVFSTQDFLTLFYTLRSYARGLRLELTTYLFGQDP

[6] = biological target: T11, Norepinephrine transporter NET (Homo sapiens, UniProt P23975); assay: Radioligand displacement binding assay, [125I]RTI-55, NET
T11 construct: host or cells: MDCK
T11 sequence (P23975 whole entry): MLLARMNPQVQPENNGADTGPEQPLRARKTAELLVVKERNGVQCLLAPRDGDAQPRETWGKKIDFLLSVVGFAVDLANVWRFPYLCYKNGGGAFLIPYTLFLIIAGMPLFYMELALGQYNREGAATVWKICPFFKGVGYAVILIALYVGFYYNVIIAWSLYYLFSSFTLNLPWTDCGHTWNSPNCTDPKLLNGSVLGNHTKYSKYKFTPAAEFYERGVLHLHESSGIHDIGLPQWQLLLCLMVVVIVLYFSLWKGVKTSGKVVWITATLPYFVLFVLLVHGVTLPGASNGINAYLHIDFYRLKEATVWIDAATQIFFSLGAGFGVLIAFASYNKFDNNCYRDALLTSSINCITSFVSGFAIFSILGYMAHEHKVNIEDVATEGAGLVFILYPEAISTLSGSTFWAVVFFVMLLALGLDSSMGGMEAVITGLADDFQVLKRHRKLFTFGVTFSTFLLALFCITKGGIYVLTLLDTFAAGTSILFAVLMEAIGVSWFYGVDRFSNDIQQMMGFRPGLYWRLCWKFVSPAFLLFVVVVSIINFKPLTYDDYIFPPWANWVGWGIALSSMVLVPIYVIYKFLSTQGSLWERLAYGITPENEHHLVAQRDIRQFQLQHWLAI

[7] = biological target: T12, Serotonin transporter SERT (Homo sapiens, UniProt P31645); assay: Radioligand displacement binding assay, [3H]paroxetine, SERT
T12 construct: host or cells: HEK-293

| SMILES | pIC50 (mean ± SEM) GluN1-GluN2A [1] | pIC50 (mean ± SEM) GluN1-GluN2B [2] | pIC50 (mean ± SEM) GluN1-GluN2C [3] | pIC50 (mean ± SEM) GluN1-GluN2D [4] | % inhibition of binding, NMDA ([5]; 1 μM) | % inhibition of binding, NMDA ([5]; 10 μM) | inhibition at 10 µM (Histamine H1) | inhibition at 30 µM (Histamine H1) | inhibition at 1 µM (Muscarinic M5) | inhibition at 10 µM (Muscarinic M5) | inhibition at 0.3 µM (μ opioid receptor (MOP)) | inhibition at 3 µM (μ opioid receptor (MOP)) | inhibition at 0.3 µM (Serotonin 5-HT1A) | inhibition at 3 µM (Serotonin 5-HT1A) | inhibition at 0.3 µM (Serotonin 5-HT2A) | inhibition at 3 µM (Serotonin 5-HT2A) | inhibition at 0.3 µM (Serotonin 5-HT2C) | inhibition at 3 µM (Serotonin 5-HT2C) | inhibition at 1 µM (Serotonin 5-HT5A) | inhibition at 10 µM (Serotonin 5-HT5A) | other results |
| --- | --- | --- | --- | --- | --- | --- | --- | --- | --- | --- | --- | --- | --- | --- | --- | --- | --- | --- | --- | --- | --- |
| CC[C@H](O)C(C[C@H](C)N)(c1ccccc1)c1ccccc1 [(3S,6S)-DNML, (3S,6S)-6-amino-4,4-diphenylheptan-3-ol] | 4.9 ± 0.081 | 4.4 ± 0.13 | 4.7 ± 0.056 | 4.7 ± 0.079 | 9% | 36% | 5% | 24% | 1% | 9% | 38% | 84% | 24% | 15% | 12% | 10% | 1% | 19% | -7% | -12% | inhibition at 1 µM (Serotonin 5-HT7): 5%; inhibition at 10 µM (Serotonin 5-HT7): 4%; inhibition at 0.3 µM (Sigma σ1): 46%; inhibition at 3 µM (Sigma σ1): 71%; inhibition at 1 µM [6]: -5%; inhibition at 10 µM [6]: 3%; inhibition at 1 µM [7]: 35%; % inhibition of binding, SERT ([7]; 10 μM): displaced; inhibition at 10 µM ([7]; 10 μM): 82% |
| CC[C@@H](O)C(C[C@@H](C)N)(c1ccccc1)c1ccccc1 [(3R,6R)-DNML, (3R,6R)-6-amino-4,4-diphenylheptan-3-ol] | 4.8 ± 0.060 | 4.6 ± 0.054 | 4.7 ± 0.050 | 4.7 ± 0.058 | 12% | 54% | 3% | 9% | -1% | 33% | -7% | 9% | 0% | 4% | 6% | 8% | 7% | 16% | 4% | -4% | inhibition at 1 µM (Serotonin 5-HT7): 12%; inhibition at 10 µM (Serotonin 5-HT7): 8%; inhibition at 0.3 µM (Sigma σ1): 14%; inhibition at 3 µM (Sigma σ1): 47%; inhibition at 1 µM [6]: 4%; inhibition at 10 µM [6]: 6%; inhibition at 1 µM [7]: -1%; inhibition at 10 µM ([7]; 10 μM): 20% |
| CNC1(c2ccccc2Cl)CCCCC1=O (racemic) [(±)-ketamine, reference compound] | 4.6 ± 0.028 | 5.2 ± 0.037 | 5.4 ± 0.069 | 5.0 ± 0.087 |  |  |  |  |  |  |  |  |  |  |  |  |  |  |  |  |  |
| CC[C@H](O)C(C[C@H](C)N(C)C)(c1ccccc1)c1ccccc1 [(3S,6S)-ML, (3S,6S)-6-(dimethylamino)-4,4-diphenylheptan-3-ol] | 4.1 ± 0.034 | 4.0 ± 0.077 | 4.1 ± 0.056 | 4.2 ± 0.16 |  |  |  |  |  |  |  |  |  |  |  |  |  |  |  |  |  |
| CC[C@@H](O)C(C[C@@H](C)N(C)C)(c1ccccc1)c1ccccc1 [(3R,6R)-ML, (3R,6R)-6-(dimethylamino)-4,4-diphenylheptan-3-ol] | 4.5 ± 0.085 | 4.0 ± 0.12 | 4.1 ± 0.062 | 4.3 ± 0.12 |  |  |  |  |  |  |  |  |  |  |  |  |  |  |  |  |  |
| C[C@@H](CC(C(=O)O)(c1ccccc1)c1ccccc1)N(C)C [(S)-DDVA, 4-(Dimethylamino)-2,2-diphenylpentanoic acid] |  |  |  |  |  |  |  |  |  |  |  |  |  |  |  |  |  |  |  |  | IC50 ([1]; read-out: pIC50 (mean ± SEM) GluN1-GluN2A (converted)): > 100 µM; IC50 ([2]; read-out: pIC50 (mean ± SEM) GluN1-GluN2B (converted)): > 100 µM; IC50 ([3]; read-out: pIC50 (mean ± SEM) GluN1-GluN2C (converted)): > 100 µM; IC50 ([4]; read-out: pIC50 (mean ± SEM) GluN1-GluN2D (converted)): > 100 µM |
